Results: US6492174B1, “Methods of initiating embryogenic cultures in plants” (Institute of Paper Science & Technology, priority 2000, dated 2002)

Assays:
Type in all cases: cell-based
[1] = tested on: Loblolly pine megagametophytes; test: 30 minute abscisic acid soaking pre-treatment, culture on solid media #1042 with or without 0.1 μM brassinolide, eight weeks; settings: 0 ppm ABA/ +Br (0.10 μM)
Protocol: In this experiment, the effects of ovule pre-treatment by soaking with abscisic acid solutions of varying concentration was investigated. The abscisic acid treatment was tested on two media, one containing brassinolide and one lacking in brassinolide. The explants were megagametophytes from open pollinated summer cones of four individual trees, representing a multiplicity of genotypes. The seeds contained Stage 2-4 zygotic embryos. Megagametophytes were excised from sterilized seeds, as described in Example 4.
Prior to culturing, the megagametophytes were soaked for 30 minutes in liquid growth media (media #1042, Table 47, minus the gelling agent) containing 0, 5, 10 and 20 ppm abscisic acid. After soaking, the megagametophytes were placed on either one of two solid growth media. While still liquid, 2 ml media was poured into wells on a culture well plate and allowed to solidify. Half the soaked megagametophytes were placed on solid media #1042 (Table 47) and half were placed on solid media #1042 with 0.1 μM brassinolide added.
On solid media where brassinolide was present, there was a dramatic difference in extrusion and initiation between megagametophytes soaked in zero and 5 ppm ABA solutions (Treatments #5 and #6) compared to those soaked in 10 and 20 ppm ABA solutions (Treatments #7 and #8). […] In contrast, megagametophytes treated with higher amounts of ABA in Treatments 7 and 8 had the highest initiation frequencies of any treatment. […] Alternatively, there may have been an interaction between brassinolide and ABA such that low ABA plus brassinolide inhibits extrusion, with this inhibition overcome when ABA concentration is higher.

[2] = tested on: Norway spruce zygotic embryos; test: Norway spruce initiation on solid media #56 with ABA, brassinolide or elevated pressure, ten weeks; settings: 0.1 pM brassinolide added to medium #56
Protocol: Explants were zygotic embryos flipped out of the megagametophyte, prepared as in Example 1. The experiment consisted of five replications, with a replication consisting of ten explants in a single petri dish. Explants were cultured on solid media #56 (Table 3). Treatment #1 consisted of explants on media #56. In Treatment #2, the medium additionally contained 1 ppm ABA. In Treatment #3, the media contained […] brassinolide. In Treatment #4, the explants were cultured under 1.5 atmospheres of pressure. After ten weeks, the explants were examined and the frequency of embryogenic culture initiation was scored (Table 43).

[3] = tested on: Douglas fir stage 3-5 zygotic embryos attached to megagametophytes; test: Douglas fir initiation on solid media #121 with brassinolide, ABA, ABA pre-soak or elevated pressure; settings: +0.1 μM Br in media #121
From the text: The explants used in this experiment were isolated from Douglas fir cones collected in mid-summer from four open-pollinated trees, representing a multiplicity of genotypes. Explants were stage 3-5 (early-midstage) zygotic embryos attached to megagametophytes, prepared as described in Example 2. The embryo and attached megagametophyte were then placed next to each other on the treatment media. As in Example 2, each replication consisted of ten explants in a single petri dish. Each treatment contained four replications per treatment, per genotype.
The treatment media were based on solid media #121, the composition of which is described in Table 5. Media #121 contains no ABA or brassinolide. Treatment #1, the control, consisted of explants cultured on media #121 alone. In Treatment #2, explants were cultured on media #121 containing 0.1 μM brassinolide. In Treatment #3, explants were cultured on media #121 containing 1 ppm ABA. In treatment #4, explants were soaked in liquid media containing 5 ppm ABA for 30 minutes prior to being placed on #121 media. In Treatment #5, explants were cultured on media #121 under 1.5 atmospheres of pressure. The petri dishes were wrapped in PARAFILM and incubated at 23-24° C. in the dark.

[4] = tested on: Loblolly pine megagametophytes; test: Elevated pressure in combination with brassinolide, ABA pre-soak or liquid media #1038, 8 weeks; settings: for % Megagametophytes Extruding / % Megagametophytes Initiating: Br 0.1 μM in media #1042, ABA soak 5 ppm 30 minute
Protocol: The previous examples indicate that elevated pressure can enhance extrusion and initiation. This experiment was designed to test the effect of elevated pressure in combination with other treatments to determine the optimal conditions for promoting extrusion and initiation.
Megagametophytes in some treatments received a 30 minute pre-culturing soak in liquid media (#1042 minus the gelling agent) containing 5 ppm ABA. Megagametophytes in Treatments 9 and 10 were fully immersed in liquid media #1038. The experiment consisted of three replications per treatment, per genotype.
Five different treatments were used, each cultured under 1.0 or 1.5 atmospheres for a total of ten treatments (See Table 33).
After 8 weeks culturing, the treatments were scored. Extrusion and initiation were increased by elevated pressure in all treatments.

[5] = genotype 7-100, + Pressure 1.5 atm
[6] = genotype 11-1095, + Pressure 1.5 atm
[7] = genotype 21-6, + Pressure 1.5 atm

In the case of `CC(C)[C@H](C)[C@@H](O)[C@H](O)[C@@H](C)[C@H]1CC[C@H]2[C@@H]3COC(=O)[C@H]4C[C@H](O)[C@H](O)C[C@]4(C)[C@H]3CC[C@]12C` [brassinolide], the “% Megagametophytes Extruding” value ([1]; genotype 7-1051) is reported as 13.3 (6.7) %, the “Embryogenic Culture Initiation - % Megagametophytes Extruding” value ([1]; genotype 7-1051) is reported as 0.0 (0.0) % and the “% Megagametophytes Extruding” value ([1]; genotype M7-56) is reported as 3.3 (3.3) %. For the same compound, the “Embryogenic Culture Initiation - % Megagametophytes Extruding” value ([1]; genotype M7-56) was 0.0 (0.0) %, the “% Megagametophytes Extruding” value ([1]; genotype TC5-1501) was 0.0 (0.0) % and the “Embryogenic Culture Initiation - % Megagametophytes Extruding” value ([1]; genotype TC5-1501) was 0.0 (0.0) %. For the same compound, the “% Megagametophytes Extruding” value ([1]; genotype TC11-109) was 0.0 (0.0) %, the “Embryogenic Culture Initiation - % Megagametophytes Extruding” value ([1]; genotype TC11-109) was 0.0 (0.0) % and the “% Megagametophytes Extruding” value ([1]; total) was 4.2%. The “Embryogenic Culture Initiation - % Megagametophytes Extruding” value ([1]; total) was 0%, the “% Initiating (std. error)” value [2] was 46.2 (6.1) % and the “% of Megagametophytes Initiating - Mean” value ([3]; genotype T0232l) was 27.8%. For the same compound, the “% of Megagametophytes Initiating - Mean” value ([3]; genotype T0235l) was 21.8%, the “% of Megagametophytes Initiating - Mean” value ([3]; genotype T0293l) was 34.6% and the “% of Megagametophytes Initiating - Mean” value ([3]; genotype T0525l) was 30.0%. The “% of Megagametophytes Initiating - Mean” value ([3]; total) was 31.1%, the “% Megagametophytes Extruding” value ([4]; Total, 1.0 atm) was 32.2% and the “% Megagametophytes Initiating” value ([4]; Total, 1.0 atm) was 24.2%. The “% Megagametophytes Extruding” value ([4]; Total, + Pressure 1.5 atm) was 55.9%, the “% Megagametophytes Initiating” value ([4]; Total, + Pressure 1.5 atm) was 38.7% and the “increase of initiation frequency by pressure” value ([4]; Treatment #4 vs. #3) was “over 60%”. For the same compound, the “% Megagametophytes Extruding” value ([4]; genotype 7-100, 1.0 atm) was 3.3 (3.3) %, the “% Megagametophytes Initiating” value ([4]; genotype 7-100, 1.0 atm) was 0.0 (0.0) % and the “% Megagametophytes Extruding” value [4, 5] was 43.3 (8.8) %. For the same compound, the “% Megagametophytes Initiating” value [4, 5] was 20.0 (5.8) %, the “% Megagametophytes Extruding” value ([4]; genotype 11-1095, 1.0 atm) was 56.7 (6.7) % and the “% Megagametophytes Initiating” value ([4]; genotype 11-1095, 1.0 atm) was 39.2 (11.6) %. The “% Megagametophytes Extruding” value [4, 6] was 50.0 (21.7) %, the “% Megagametophytes Initiating” value [4, 6] was 39.2 (18.6) % and the “% Megagametophytes Extruding” value ([4]; genotype 21-6, 1.0 atm) was 36.7 (6.7) %. For the same compound, the “% Megagametophytes Initiating” value ([4]; genotype 21-6, 1.0 atm) was 33.3 (8.8) %, the “% Megagametophytes Extruding” value [4, 7] was 74.4 (12.4) % and the “% Megagametophytes Initiating” value [4, 7] was 56.9 (13.7) %.
